The values that follow come from patent EP4168130B1, “USE OF INDOLE COMPOUNDS FOR TREATING SIGNS OF SKIN AGING” (Unilever IP Holdings B.V., priority 2020, dated 2021).

Structures are written as SMILES.

The experiment has as its system primary adult human dermal fibroblasts (HDFs). Description: High-throughput compound screen for selective elimination of senescent cells (cell viability, Hoechst 33342 / SYTOX Green high content imaging) in early proliferating (EP) and deeply senescent (DS) fibroblasts. The arrangement: key: senolytic: EP cell viability above the 89% EP threshold and DS cell viability below the 87% DS threshold for at least one concentration of the three serial concentrations; prolifolytic: test compounds which decreased EP cell viability below the 89% EP threshold but did not decrease DS cell viability below 87%; cytotoxic: Test compounds which decreased both EP and DS cell viability below their respective thresholds; non-toxic: test compounds which maintained both EP and DS viability above their respective thresholds. The settings on record: three serial concentrations, 48 hours incubation, read-out five days post compound addition, thresholds 89% EP, 87% DS, for at least one concentration. The experiment is classed as cell-based. As for the experimental part: Actinomycin D, a drug widely reported to induce apoptosis in multiple cell types, was optimised for use as a positive 'senolytic control' for the high-throughput compound screen in EP (0.02µM) and DS (0.2µM) HDFs.
In order to perform the high-throughput screen of the test compounds a thorough validation process of the assay was undertaken prior to experimental screening. For both EP and DS HDFs, the following steps were optimised: optimisation of cell seeding densities in 384-well plate format; validation and optimisation of Actinomycin D positive and DMSO-vehicle negative controls; optimisation of high-throughput image acquisition and high content analysis of Hoechst 33342 (ThermoFisher, UK) in combination with SYTOX Green (ThermoFisher, UK) using the INCell 2200 microscope (GE, UK) for cell death phenotypic read-outs; optimisation of liquid handling system protocols; plate uniformity assessments; and a "dry run" of all components in the assay. […]
Following successful high-throughput compound screening of the test compounds in both EP and DS HDFs, a number of post-screen quality control checks were employed prior to hit detection. First, negative and positive control inter- and intra-plate cell number variability was assessed in order to identify potential systemic issues. […]

For `O=C(O)Cn1ccc2ccccc21` [1-indoleacetic acid], the “hit classification based on EP and DS cell viability” value is “senolytic”.
